Laboratory results as given in ChEMBL document CHEMBL1141680, “Identification of ring-fused pyrazolo pyridin-2-ones as novel poly(ADP-ribose)polymerase-1 inhibitors” (Bioorg Med Chem Lett, 2008).

Columns and labels:
[1] = target: Poly [ADP-ribose] polymerase 1 (Homo sapiens, UniProt P09874)
Description: Inhibition of PARP1 in human HeLa cells by fluid scintillation counting using [adenylated-32P]NAD as substrate

HCT-116 = assay: Cytotoxicity against human HCT116 cells; format: cell-based
PARP1 = assay: Therapeutic index, ratio of LD40 for human HCT116 cells to drug concentration that reduced half the amount of streptozotocin required to inhibit PARP1-mediated 90% human HCT116 cell growth; format: cell-based, HCT-116; details: read-out: TI

Sequence of Poly [ADP-ribose] polymerase 1 (P09874 whole entry): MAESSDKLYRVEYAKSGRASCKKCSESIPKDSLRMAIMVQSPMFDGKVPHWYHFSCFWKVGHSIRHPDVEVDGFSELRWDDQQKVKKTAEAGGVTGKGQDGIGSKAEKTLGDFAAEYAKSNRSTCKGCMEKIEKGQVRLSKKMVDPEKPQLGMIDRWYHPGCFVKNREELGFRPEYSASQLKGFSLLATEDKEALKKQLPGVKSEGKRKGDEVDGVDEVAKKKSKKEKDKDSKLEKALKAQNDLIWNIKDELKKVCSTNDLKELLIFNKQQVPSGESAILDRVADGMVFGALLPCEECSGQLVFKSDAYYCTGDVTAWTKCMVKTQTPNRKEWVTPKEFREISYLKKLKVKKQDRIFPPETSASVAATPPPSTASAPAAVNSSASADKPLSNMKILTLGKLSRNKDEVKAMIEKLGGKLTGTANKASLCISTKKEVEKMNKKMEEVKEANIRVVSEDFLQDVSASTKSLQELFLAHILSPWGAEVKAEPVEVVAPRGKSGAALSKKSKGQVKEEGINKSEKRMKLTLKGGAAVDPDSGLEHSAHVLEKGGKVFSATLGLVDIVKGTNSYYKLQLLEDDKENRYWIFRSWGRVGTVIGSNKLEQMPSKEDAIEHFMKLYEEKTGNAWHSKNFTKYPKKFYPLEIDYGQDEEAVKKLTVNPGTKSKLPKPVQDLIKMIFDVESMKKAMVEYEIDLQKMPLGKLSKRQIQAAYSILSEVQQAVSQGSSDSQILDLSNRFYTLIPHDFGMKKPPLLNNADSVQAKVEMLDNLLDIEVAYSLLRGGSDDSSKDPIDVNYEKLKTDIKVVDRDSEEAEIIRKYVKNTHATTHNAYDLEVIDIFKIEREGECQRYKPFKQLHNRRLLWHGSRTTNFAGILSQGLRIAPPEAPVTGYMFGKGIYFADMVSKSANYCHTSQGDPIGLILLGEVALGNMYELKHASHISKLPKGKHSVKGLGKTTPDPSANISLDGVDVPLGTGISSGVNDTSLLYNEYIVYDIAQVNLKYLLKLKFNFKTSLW

## Cc1cccc2c1CCNC2=O
[1]
  IC50: 160 nM

## COc1ccc(-c2nc3c(C(N)=O)cccc3[nH]2)cc1
[1]
  IC50: 60 nM

## Cc1nn(C)c2[nH]c(=O)c3c(c12)CSC3
HCT-116
  LD40: > 50 µM
PARP1
  selectivity ratio: > 1.8
[1]
  IC50: 92.7 nM

## Cc1nn(C)c2nc3c(c(O)c12)CSC3
[1]
  IC50: > 10000 nM

## Cc1nn(C)c2[nH]c(=O)c3c(c12)CCCC3
HCT-116
  LD40: > 12.5 µM
PARP1
  selectivity ratio: > 6.6
[1]
  IC50: 2.2 nM

## Cc1nn(-c2ccccc2)c2[nH]c(=O)c3c(c12)CCC3
[1]
  IC50: > 10000 nM

## Cn1nc(-c2ccccc2)c2c3c(c(=O)[nH]c21)CCC3
HCT-116
  LD40: 42.5 µM
PARP1
  selectivity ratio: 1.6
[1]
  IC50: 106 nM

## Cc1nn(C)c2[nH]c3c(c(=O)c12)CCCC3
[1]
  IC50: > 10000 nM

## Cn1nc(-c2cccs2)c2c3c(c(=O)[nH]c21)CCCC3
HCT-116
  LD40: > 12.5 µM
PARP1
  selectivity ratio: > 32.9
[1]
  IC50: 6.9 nM

## Cn1nc(-c2ccccc2)c2c3c(c(=O)[nH]c21)CSC3
HCT-116
  LD40: 21.2 µM
PARP1
  selectivity ratio: 1.4
[1]
  IC50: 110 nM

## Cn1nc(-c2cccs2)c2c3c(c(=O)[nH]c21)CSC3
[1]
  IC50: 428 nM

## Cc1nn(-c2ccccc2)c2[nH]c(=O)c3c(c12)CCCC3
[1]
  IC50: 9720 nM

## O=c1[nH]c2c(c(-c3ccccc3)nn2-c2ccccc2)c2c1CCCC2
[1]
  IC50: > 10000 nM

## O=c1[nH]c2c(c(-c3ccccc3)nn2-c2ccccc2)c2c1CCC2
[1]
  IC50: > 10000 nM

## Cc1nn(C(C)(C)C)c2[nH]c(=O)c3c(c12)CSC3
[1]
  IC50: 1840 nM

## Cn1nc(-c2cccs2)c2c3c(c(=O)[nH]c21)CCC3
HCT-116
  LD40: 11.2 µM
PARP1
  selectivity ratio: 3.6
[1]
  IC50: 149 nM

## Cc1nn(C)c2[nH]c(=O)c3c(c12)CCC3
HCT-116
  LD40: 27.2 µM
PARP1
  selectivity ratio: 1.4
[1]
  IC50: 29.8 nM

## Cc1nn(C(C)(C)C)c2[nH]c(=O)c3c(c12)CCC3
[1]
  IC50: 519 nM

## Cc1nn(-c2ccccc2)c2[nH]c(=O)c3c(c12)CSC3
[1]
  IC50: > 10000 nM

## Cn1nc(-c2ccccc2)c2c1NC(=O)C1CCCCC21 (configuration not stated)
HCT-116
  LD40: 7.5 µM
PARP1
  selectivity ratio: 19.7
[1]
  IC50: 7.3 nM

## Cc1nn(C)c2[nH]c3c(c(=O)c12)CCC3
[1]
  IC50: 7000 nM
